Assay results taken from patent publication US8785488B2 (Exelixis Patent Company LLC, priority 2009, dated 2014).

Columns and labels:
[1] = target: T1, human TGR5 (h-TGR5) (Homo sapiens, UniProt Q8TDU6); test: TGR5/CRE-Luciferiase Assay (HEK 293 hTGR5/CRE-Luc cells); format: cell-based; details: h-TGR5 CRE-Luc EC50, Table 1; read-out: CRE-Luc (EC50)
T1 construct: expressed in transfected cells
T1 sequence (Q8TDU6 1-330): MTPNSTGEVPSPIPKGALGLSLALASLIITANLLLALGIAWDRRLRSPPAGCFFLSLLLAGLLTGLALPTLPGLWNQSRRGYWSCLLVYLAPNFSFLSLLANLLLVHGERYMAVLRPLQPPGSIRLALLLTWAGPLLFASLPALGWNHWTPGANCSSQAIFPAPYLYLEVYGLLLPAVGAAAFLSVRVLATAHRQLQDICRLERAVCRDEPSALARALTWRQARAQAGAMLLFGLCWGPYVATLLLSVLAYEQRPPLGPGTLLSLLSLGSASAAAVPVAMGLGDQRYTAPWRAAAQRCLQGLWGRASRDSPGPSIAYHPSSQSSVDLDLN
Procedure, shortened: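 HEK293 cells stably carrying hTGR5 and a CRE-luciferase reporter were exposed to serially diluted compounds (diluted in DMEM with 5% DMSO) for 6 h. Cells were then lysed in luciferase buffer, luminescence was read, and EC50 values were derived from dose-response curves.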

[2] = target: T2, h-TGR5 (Homo sapiens, UniProt Q8TDU6); test: TGR5 cAMP Assay using Cisbio cAMP Dynamic2 htrf kit (hTGR5CRE-luc HEK 293 cells); format: cell-based; details: h-TGR5 cAMP EC50, Table 1; read-out: cAMP (EC50)
T2 construct: expressed in transfected cells
T2 sequence (Q8TDU6 1-330): T1 sequence (Q8TDU6 1-330)
Procedure, shortened: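 […], 4000 hTGR5CRE-luc HEK 293 cells per well, with 0.5 mM IBMX and d2-cAMP, were incubated 30 min at room temperature with compounds in 8-point half-log series, in quadruplicate.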

Structure (SMILES)	EC50 [1]	EC50 [2]
CC(C)(c1ccc2ccccc2c1)c1cnc(SCc2c(F)cc(C(=O)O)cc2F)n1-c1ccc(F)cc1 [3,5-difluoro-4-({[1-(4-fluorophenyl)-5-(1-methyl-1-naphthalen-2-ylethyl)-1H-imidazol-2-yl]thio}methyl)benzoic acid]	100 to 1000 nM	100 to 1000 nM
CC(C)(c1ccc(Cl)c(Cl)c1)c1c(Cl)nc(SCc2c(F)cc(C(=O)O)cc2F)n1-c1ccc(F)cc1 [4-[({4-chloro-5-[1-(3,4-dichlorophenyl)-1-methylethyl]-1-(4-fluorophenyl)-1H-imidazol-2-yl}thio)methyl]-3,5-difluorobenzoic acid]	100 to 1000 nM	100 to 1000 nM
CC(C)(c1ccc(Cl)c(Cl)c1)c1cnc(SCc2ccc(F)cc2Cl)n1-c1cccnc1 [3-(2-{[(2-chloro-4-fluorophenyl)methyl]thio}-5-[1-(3,4-dichlorophenyl)-1-methylethyl]-1H-imidazol-1-yl)pyridine]	100 to 1000 nM	1000 to 10000 nM
CC(C)(c1ccc(S(N)(=O)=O)c(Cl)c1)c1cnc(SCc2ccc(Cl)c(-c3nnn[nH]3)c2)n1-c1ccc(F)cc1 [2-chloro-4-{1-[2-({[4-chloro-3-(1H-tetrazol-5-yl)phenyl]methyl}thio)-1-(4-fluorophenyl)-1H-imidazol-5-yl]-1-methylethyl}benzenesulfonamide]	100 to 1000 nM	100 to 1000 nM
COc1cc(C(C)(C)c2cnc(SCc3ccc(S(=O)(=O)NC(=O)NN4CCCC4)cc3Cl)n2-c2ccc(F)cc2)ccc1S(N)(=O)=O [4-({[5-{1-[4-(aminosulfonyl)-3-(methyloxy)phenyl]-1-methylethyl}-1-(4-fluorophenyl)-1H-imidazol-2-yl]thio}methyl)-3-chloro-N-[(pyrrolidine-1-ylamino)carbonyl]benzenesulfonamide]	100 to 1000 nM	100 to 1000 nM
CC(C)(c1ccc(Cl)c(Cl)c1)c1cnc(SCc2ccc(C(=O)O)cc2F)n1-c1ccc(F)cc1 [4-[({5-[1-(3,4-dichlorophenyl)-1-methylethyl]-1-(4-fluorophenyl)-1H-imidazol-2-yl}thio)methyl]-3-fluorobenzoic acid]	100 to 1000 nM	100 to 1000 nM
COc1ccc(C2CCCCN2S(=O)(=O)c2ncc(C(C)(C)c3ccc(Cl)c(Cl)c3)n2-c2ccc(F)cc2)cn1 (stereo not drawn) [5-[1-({5-[1-(3,4-dichlorophenyl)-1-methylethyl]-1-(4-fluorophenyl)-1H-imidazol-2-yl}sulfonyl)piperidin-2-yl]-2-(methyloxy)pyridine]	100 to 1000 nM	100 to 1000 nM
COc1cc(-n2c(C(C)(C)c3ccc(S(C)(=O)=O)cc3)cnc2SCc2c(F)cc(C(=O)O)cc2F)ccc1F [3,5-difluoro-4-{[(1-[4-fluoro-3-(methyloxy)phenyl]-5-{1-methyl-1-[4-(methylsulfonyl)phenyl]ethyl}-1H-imidazol-2-yl)thio]methyl}benzoic acid]	100 to 1000 nM	< 100 nM
CC(C)(c1ccc(Cl)c(OCCCN2CCOCC2)c1)c1cnc(SCc2c(F)cccc2Cl)n1-c1ccc(F)cc1	100 to 1000 nM	100 to 1000 nM
CCOC(=O)NS(=O)(=O)c1ccc(CSc2ncc(C(C)(C)c3ccc(Cl)c(Cl)c3)n2-c2ccc(F)c(OC)c2)c(Cl)c1 [ethyl ({3-chloro-4-[({5-[1-(3,4-dichlorophenyl)-1-methylethyl]-1-[4-fluoro-3-(methyloxy)phenyl]-1H-imidazol-2-yl}thio)methyl]phenyl}sulfonyl)carbamate]	100 to 1000 nM	100 to 1000 nM
COc1cc(-n2c(C(C)(C)c3ccc(S(N)(=O)=O)c(Cl)c3)cnc2SCc2ccc(S(=O)(=O)NC(=O)NN3CCOCC3)cc2Cl)ccc1F [4-{[(5-{1-[4-(aminosulfonyl)-3-chlorophenyl]-1-methylethyl}-1-[4-fluoro-3-(methyloxy)phenyl]-1H-imidazol-2-yl)thio]methyl}-3-chloro-N-[(morpholin-4-ylamino)carbonyl]benzenesulfonamide]	100 to 1000 nM	< 100 nM
COc1cc(-n2c(C(C)(C)c3ccc(S(C)(=O)=O)c(Cl)c3)cnc2SCc2ccc(S(=O)(=O)NC(=O)NN3CCCC3)cc2Cl)ccc1F [3-chloro-4-{[(5-{1-[3-chloro-4-(methylsulfonyl)phenyl]-1-methylethyl}-1-[4-fluoro-3-(methyloxy)phenyl]-1H-imidazol-2-yl)thio]methyl}-N-[(pyrrolidin-1-ylamino)carbonyl]benzenesulfonamide]	100 to 1000 nM	100 to 1000 nM
COc1cc(C(C)(C)c2cnc(SCc3ccc(S(=O)(=O)NC(=O)NN4CCN(C)CC4)cc3Cl)n2-c2ccc(F)cc2)ccc1Cl [3-chloro-4-({[5-{1-[4-chloro-3-(methyloxy)phenyl]-1-methylethyl}-1-(4-fluorophenyl)-1H-imidazol-2-yl]thio}methyl)-N-{[(4-methylpiperazin-1-yl)amino]carbonyl} benzenesulfonamide]	100 to 1000 nM	100 to 1000 nM

Further lines, results first:

EC50 [1]	EC50 [2]	Structure (SMILES)
< 100 nM	100 to 1000 nM	COc1ccc(C(C)(C)c2cnc(SCc3cc(-c4nnn[nH]4)c(Cl)cc3Cl)n2-c2ccc(F)cc2)cc1Cl [5-[2,4-dichloro-5-({[5-{1-[3-chloro-4-(methyloxy)phenyl]-1-methylethyl}-1-(4-fluorophenyl)-1H-imidazol-2-yl]thio}methyl)phenyl]-1H-tetrazole]
100 to 1000 nM	100 to 1000 nM	CC(C)(c1ccc(Cl)c(Cl)c1)c1cnc(SCc2ccc(OCC(=O)O)c(S(N)(=O)=O)c2)n1-c1ccc(F)cc1 [({2-(aminosulfonyl)-4-[({5-[1-(3,4-dichlorophenyl)-1-methylethyl]-1-(4-fluorophenyl)-1H-imidazol-2-yl}thio)methyl]phenyl}oxy)acetic acid]
< 100 nM	< 100 nM	COc1cc(C(C)(C)c2cnc(SCc3c(F)cc(OCCCNC(=N)N)cc3Cl)n2-c2ccc(F)cc2)ccc1Cl [1-(3-{[3-chloro-4-({[5-{1-[4-chloro-3-(methyloxy)phenyl]-1-methylethyl}-1-(4-fluorophenyl)-1H-imidazol-2-yl]thio}methyl)-5-fluorophenyl]oxy}propyl)guanidine]
< 100 nM	< 100 nM	COc1cc(C(C)(C)c2cnc(SCc3ccc(C(=O)O)cc3F)n2-c2ccc(F)cc2)ccc1Cl [4-({[5-{1-[4-chloro-3-(methyloxy)phenyl]-1-methylethyl}-1-(4-fluorophenyl)-1H-imidazol-2-yl]thio}methyl)-3-fluorobenzoic acid]
< 100 nM	< 100 nM	COc1cc(-n2c(C(C)(C)c3ccc(Cl)c(OC)c3)cnc2SCc2ccc(S(=O)(=O)NC(=O)NN3CCCC3)cc2Cl)ccc1F [3-chloro-4-{[(5-{1-[4-chloro-3-(methyloxy)phenyl]-1-methylethyl}-1-[4-fluoro-3-(methyloxy)phenyl]-1H-imidazol-2-yl)thio]methyl}-N-[(pyrrolidin-1-ylamino)carbonyl]benzenesulfonamide]
< 100 nM	< 100 nM	COc1cc(-n2c(C(C)(C)c3ccc(Cl)c(Cl)c3)cnc2SCc2c(F)cccc2Cl)ccc1F [2-{[(2-chloro-6-fluorophenyl)methyl]thio}-5-[1-(3,4-dichlorophenyl)-1-methylethyl]-1-[4-fluoro-3-(methyloxy)phenyl]-1H-imidazole]
< 100 nM	1000 to 10000 nM	COc1cc(C(C)(C)c2c(Cl)nc(SCC3CCN(c4nnn[nH]4)CC3)n2-c2ccc(F)cc2)ccc1Cl [4-({[4-chloro-5-{1-[4-chloro-3-(methyloxy)phenyl]-1-methylethyl}-1-(4-fluorophenyl)-1H-imidazol-2-yl]thio}methyl)-1-(1H-tetrazol-5-yl)piperidine]
< 100 nM	< 100 nM	CC(C)(c1ccc(F)c(C#N)c1)c1cnc(SCc2c(F)cc(C(=O)O)cc2F)n1-c1ccc(F)cc1 [4-[({5-[1-(3-cyano-4-fluorophenyl)-1-methylethyl]-1-(4-fluorophenyl)-1H-imidazol-2-yl}thio)methyl]-3,5-difluorobenzoic acid]
< 100 nM	< 100 nM	CC(C)(c1ccc2onc(N)c2c1)c1cnc(SCc2c(F)cc(C(=O)NC(CCCNC(=N)N)C(=O)O)cc2Cl)n1-c1ccc(F)cc1 [N-2-({4-[({5-[1-(3-amino-1,2-benzisoxazol-5-yl)-1-methylethyl]-1-(4-fluorophenyl)-1H-imidazol-2-yl}thio)methyl]-3-chloro-5-fluorophenyl}carbonyl)-D-arginine]
< 100 nM	100 to 1000 nM	COc1cc(C(C)(C)c2cnc(SCc3ccc(CCCNC(=N)N)c(C(=O)O)c3)n2-c2ccc(F)cc2)ccc1Cl [2-(3-{[amino(imino)methyl]amino}propyl)-5-({[5-{1-[4-chloro-3-(methyloxy)phenyl]-1-methylethyl}-1-(4-fluorophenyl)-1H-imidazol-2-yl]thio}methyl)benzoic acid]
< 100 nM	< 100 nM	COc1cc(-n2c(C(C)(C)c3ccc(Cl)c(Cl)c3)cnc2SCc2c(F)cc(C(=O)O)cc2F)ccc1F [4-[({5-[1-(3,4-dichlorophenyl)-1-methylethyl]-1-[4-fluoro-3-(methyloxy)phenyl]-1H-imidazol-2-yl}thio)methyl]-3,5-difluorobenzoic acid]
